In ChEMBL document CHEMBL3885881, “DrugMatrix”:

Organism: Rattus norvegicus
Assay: DrugMatrix - Regimen: Daily Repeat
Assay type: toxicity, organism-based, Sprague-Dawley
Parameters: regimen Daily Repeat, gender Male, age 6-8 weeks
Conditions: in vivo, po, route oral GAVAGE, vehicle 100 % WATER; for ABSOLUTE BASOPHIL / ABSOLUTE EOSINOPHIL / ABSOLUTE LYMPHOCYTE / ABSOLUTE MONOCYTE / ABSOLUTE SEGMENTED NEUTROPHIL / BASOPHIL / EOSINOPHIL / ERYTHROCYTE COUNT / HEMATOCRIT / HEMOGLOBIN / LEUKOCYTE COUNT / LYMPHOCYTE / MEAN CORPUSCULAR HEMOGLOBIN / MEAN CORPUSCULAR HEMOGLOBIN CONCENTRATION / MEAN CORPUSCULAR VOLUME / MONOCYTE / NEUTROPHIL / NUCLEATED RED BLOOD CELLS / PLATELET COUNT: tissue Blood; for ALANINE AMINOTRANSFERASE / ALBUMIN / ALKALINE PHOSPHATASE / ASPARTATE AMINOTRANSFERASE / BLOOD UREA NITROGEN / CARBON DIOXIDE / CHLORIDE / CHOLESTEROL / CREATINE PHOSPHOKINASE / CREATININE / GLUCOSE / LACTATE DEHYDROGENASE / LIPASE / PHOSPHORUS / POTASSIUM / SODIUM / TOTAL BILIRUBIN / TOTAL PROTEIN / URIC ACID: tissue Plasma
[1] = 200 mg/kg, 120 h, dose level Low, time 5 day
[2] = 2000 mg/kg, 72 h, dose level High, time 3 day
[3] = 2000 mg/kg, 120 h, dose level High, time 5 day

CC(O)CO (centres undefined) [PROPYLENE GLYCOL]
ABSOLUTE BASOPHIL [1]: 0 CELLS/uL
ABSOLUTE EOSINOPHIL [1]: 0 CELLS/uL
ABSOLUTE LYMPHOCYTE [1]: 15454 CELLS/uL
ABSOLUTE MONOCYTE [1]: 284.33 CELLS/uL
ABSOLUTE SEGMENTED NEUTROPHIL [1]: 1261.67 CELLS/uL
BASOPHIL [1]: 0%
EOSINOPHIL [1]: 0%
ERYTHROCYTE COUNT [1]: 5.7 x10E6/uL
HEMATOCRIT [1]: 35.5%
HEMOGLOBIN [1]: 14.1 G/DL
LEUKOCYTE COUNT [1]: 17 x10E3/uL
LYMPHOCYTE [1]: 91%
MEAN CORPUSCULAR HEMOGLOBIN [1]: 24.83 pg
MEAN CORPUSCULAR HEMOGLOBIN CONCENTRATION [1]: 39.73 G/DL
MEAN CORPUSCULAR VOLUME [1]: 62.37 fL
MONOCYTE [1]: 1.67%
NEUTROPHIL [1]: 7.33%
NUCLEATED RED BLOOD CELLS [1]: 0 /100WBC
PLATELET COUNT [1]: 1288 x10E3/uL
ALANINE AMINOTRANSFERASE [1]: 49.33 u/L
ALBUMIN [1]: 4.37 G/DL
ALKALINE PHOSPHATASE [1]: 314.33 u/L
ASPARTATE AMINOTRANSFERASE [1]: 76.33 u/L
BLOOD UREA NITROGEN [1]: 18 mg/dL
CARBON DIOXIDE [1]: 25.33 mmol/L
CHLORIDE [1]: 101 MEQ/L
CHOLESTEROL [1]: 73 mg/dL
CREATINE PHOSPHOKINASE [1]: 227.67 u/L
CREATININE [1]: 0.16 mg/dL
GLUCOSE [1]: 165.67 mg/dL
LACTATE DEHYDROGENASE [1]: 181.67 u/L
LIPASE [1]: 8.33 u/L
PHOSPHORUS [1]: 12.87 mg/dL
POTASSIUM [1]: 6.99 MEQ/L
SODIUM [1]: 143.7 MEQ/L
TOTAL BILIRUBIN [1]: 0.23 mg/dL
TOTAL PROTEIN [1]: 6.03 G/DL
URIC ACID [1]: 2.13 mg/dL
ABSOLUTE BASOPHIL [2]: 0 CELLS/uL
ABSOLUTE EOSINOPHIL [2]: 0 CELLS/uL
ABSOLUTE LYMPHOCYTE [2]: 11801.33 CELLS/uL
ABSOLUTE MONOCYTE [2]: 112 CELLS/uL
ABSOLUTE SEGMENTED NEUTROPHIL [2]: 1053.33 CELLS/uL
BASOPHIL [2]: 0%
EOSINOPHIL [2]: 0%
ERYTHROCYTE COUNT [2]: 5.54 x10E6/uL
HEMATOCRIT [2]: 34.73%
HEMOGLOBIN [2]: 13.73 G/DL
LEUKOCYTE COUNT [2]: 12.97 x10E3/uL
LYMPHOCYTE [2]: 90.33%
MEAN CORPUSCULAR HEMOGLOBIN [2]: 24.8 pg
MEAN CORPUSCULAR HEMOGLOBIN CONCENTRATION [2]: 39.53 G/DL
MEAN CORPUSCULAR VOLUME [2]: 62.77 fL
MONOCYTE [2]: 1%
NEUTROPHIL [2]: 8.67%
NUCLEATED RED BLOOD CELLS [2]: 0 /100WBC
PLATELET COUNT [2]: 1166 x10E3/uL
ALANINE AMINOTRANSFERASE [2]: 53.33 u/L
ALBUMIN [2]: 4.3 G/DL
ALKALINE PHOSPHATASE [2]: 390 u/L
ASPARTATE AMINOTRANSFERASE [2]: 82 u/L
BLOOD UREA NITROGEN [2]: 14.33 mg/dL
CARBON DIOXIDE [2]: 23 mmol/L
CHLORIDE [2]: 100.67 MEQ/L
CHOLESTEROL [2]: 65.33 mg/dL
CREATINE PHOSPHOKINASE [2]: 195 u/L
CREATININE [2]: 0.18 mg/dL
GLUCOSE [2]: 154.67 mg/dL
LACTATE DEHYDROGENASE [2]: 119.33 u/L
LIPASE [2]: 10.67 u/L
PHOSPHORUS [2]: 12.87 mg/dL
POTASSIUM [2]: 6.42 MEQ/L
SODIUM [2]: 143.1 MEQ/L
TOTAL BILIRUBIN [2]: 0.17 mg/dL
TOTAL PROTEIN [2]: 5.93 G/DL
URIC ACID [2]: 1.53 mg/dL
ABSOLUTE BASOPHIL [3]: 0 CELLS/uL
ABSOLUTE EOSINOPHIL [3]: 46 CELLS/uL
ABSOLUTE LYMPHOCYTE [3]: 14960.67 CELLS/uL
ABSOLUTE MONOCYTE [3]: 42.67 CELLS/uL
ABSOLUTE SEGMENTED NEUTROPHIL [3]: 1217.33 CELLS/uL
BASOPHIL [3]: 0%
EOSINOPHIL [3]: 0.33%
ERYTHROCYTE COUNT [3]: 5.65 x10E6/uL
HEMATOCRIT [3]: 35.27%
HEMOGLOBIN [3]: 14 G/DL
LEUKOCYTE COUNT [3]: 16.27 x10E3/uL
LYMPHOCYTE [3]: 91.67%
MEAN CORPUSCULAR HEMOGLOBIN [3]: 24.83 pg
MEAN CORPUSCULAR HEMOGLOBIN CONCENTRATION [3]: 39.7 G/DL
MEAN CORPUSCULAR VOLUME [3]: 62.5 fL
MONOCYTE [3]: 0.33%
NEUTROPHIL [3]: 7.67%
NUCLEATED RED BLOOD CELLS [3]: 0 /100WBC
PLATELET COUNT [3]: 1315.33 x10E3/uL
ALANINE AMINOTRANSFERASE [3]: 52 u/L
ALBUMIN [3]: 4.3 G/DL
ALKALINE PHOSPHATASE [3]: 327.33 u/L
ASPARTATE AMINOTRANSFERASE [3]: 76.67 u/L
BLOOD UREA NITROGEN [3]: 17.33 mg/dL
CARBON DIOXIDE [3]: 27 mmol/L
CHLORIDE [3]: 102 MEQ/L
CHOLESTEROL [3]: 69 mg/dL
CREATINE PHOSPHOKINASE [3]: 218 u/L
CREATININE [3]: 0.16 mg/dL
GLUCOSE [3]: 159.33 mg/dL
LACTATE DEHYDROGENASE [3]: 121 u/L
LIPASE [3]: 8.67 u/L
PHOSPHORUS [3]: 12.4 mg/dL
POTASSIUM [3]: 5.9 MEQ/L
SODIUM [3]: 144.67 MEQ/L
TOTAL BILIRUBIN [3]: 0.17 mg/dL
TOTAL PROTEIN [3]: 6.07 G/DL
URIC ACID [3]: 1.43 mg/dL
